{"source": "patent US10323254B2", "about": "“Method for regulating plant growth” (RIKEN, priority 2015, dated 2019)", "system": "BSS1-GFP", "assay": "Non-reducing immunoblot analysis of BSS1-GFP oligomer", "assay_type": "in vivo, Arabidopsis thaliana", "conditions": "non-reducing conditions (without DTT); after BL treatment", "protocol": "Oligomeric BSS1-GFP and monomeric BSS1-GFP are shown by arrowhead O and arrowhead M, respectively. […] Total lysates were prepared from the transgenic plants and ultracentrifuged to separate the insoluble (precipitation) and soluble (supernatant) fractions. The insoluble fractions were then treated with the indicated surfactants and subjected to further ultracentrifugation. The resulting supernatants and pellets were analyzed by immunoblotting. As a control, the indicated surfactant-treated BIL2-GFP (protein localized to the mitochondria) samples were centrifuged as above.\n[…] The proteins were separated by SDS-PAGE (10% acrylamide gel). After electrophoresis, the proteins were electrophoretically transferred to a Hybond ECL nitrocellulose membrane (Amersham). […]", "data": [{"compound": "CC(C)[C@H](C)[C@@H](O)[C@H](O)[C@@H](C)[C@H]1CC[C@H]2[C@@H]3COC(=O)[C@H]4C[C@H](O)[C@H](O)C[C@]4(C)[C@H]3CC[C@]12C", "note": "[BL, brassinolide]", "values": [{"measurement": "amount of the oligomeric form of BSS1-GFP", "value": "significantly decreased"}]}]}
